In ChEMBL document CHEMBL1151136, “Searching for Bioactive Compounds: Various Strategies” (J Nat Prod, 1990) one finds IC50, MIC and CC50 data, which are given here for five compounds.

SMILES strings stand for the structures. ≈ marks a conversion by molar mass, not a printed value.

Series [1] can be described thus: Cytotoxicity against ovarian cancer cells. The following applies: Cancer cell lines; read-out: ID50 (the source's name). The format is functional.
The test system of a further series is Penicillium citrinum. The series is described as follows: Antimicrobial activity against Penicillium citrinum. The format is functional.
For a further series, the system named is Staphylococcus aureus. The series is described as follows: Antimicrobial activity against Staphylococcus aureus. The format is functional.
The subject of the next series is Bacillus subtilis. The series is described as follows: Antimicrobial activity against Bacillus subtilis. The format is functional.
Series [2] can be described thus: Cytotoxicity against CHL cells. The format is cell-based, Cricetulus griseus. The following applies: chinese hamster, read-out: LD50 (the source's name).

For `C=C/C(C)=C/C[C@]1(C)[C@H]2C[C@@H](O)C=C3[C@H](OC(C)=O)O[C@@H](OC(C)=O)[C@@]32[C@H](OC(=O)/C=C/c2ccccc2)C[C@@H]1C`, in series [1], the IC50 came out at 35 µg/mL (≈ 62 µM).

Regarding `CC(=O)O[C@@H]1[C@H](OC(C)=O)[C@@H](Oc2c(-c3ccc(O)cc3)oc3cc(O)cc(O)c3c2=O)O[C@H](C)[C@H]1OC(=O)/C=C/c1ccc(O)cc1`, the MIC (as a rule, the lowest concentration that inhibits growth of the organism) against Penicillium citrinum was below 30 µg/mL. Regarding `C=C(CC(=O)O)C(=O)C[C@@]1(C)[C@H](C)CC[C@@]2(C)C(C)=CCC[C@H]12`, the minimum inhibitory concentration (MIC) was 20 µg/mL (≈ 62.8 µM) with Staphylococcus aureus and 25 µg/mL (≈ 78.5 µM) with Bacillus subtilis. Regarding `C=C/C(C)=C/C[C@@]1(C)[C@@H](C)[C@H](OC(=O)CCCCCCCCC)[C@@H](OC(C)=O)[C@]23C(=C[C@H](O)C[C@@]21C)[C@@H](OC(C)=O)O[C@@H]3OC(C)=O`, in series [2], the CC50 amounted to 770 nM.

As for `CN[C@@H]1[C@H](O[C@H]2[C@H](O[C@H]3[C@H](O)[C@@H](O)[C@H](N=C(N)N)[C@@H](O)[C@@H]3N=C(N)N)O[C@@H](C)[C@]2(O)C=O)O[C@@H](CO)[C@H](O)[C@H]1O.CN[C@@H]1[C@H](O[C@H]2[C@H](O[C@H]3[C@H](O)[C@@H](O)[C@H](N=C(N)N)[C@@H](O)[C@@H]3N=C(N)N)O[C@@H](C)[C@]2(O)C=O)O[C@@H](CO)[C@H](O)[C@H]1O.O=S(=O)(O)O.O=S(=O)(O)O.O=S(=O)(O)O` [STREPTOMYCIN SULFATE], the MIC against Staphylococcus aureus is 6.3 µg/mL; against Bacillus subtilis, 12.5 µg/mL.
